IC50 data for one molecule are collected here from US11377429B2, “Benzothia(di)azepine compounds and their use as bile acid modulators” (Albireo AB, priority 2020, dated 2022).

In the experiment the target is T1, Human LBAT (Homo sapiens, UniProt Q14973).
T1 construct: expressed in transfected cells; cultured under Geneticin selection
T1 sequence (Q14973 1-349): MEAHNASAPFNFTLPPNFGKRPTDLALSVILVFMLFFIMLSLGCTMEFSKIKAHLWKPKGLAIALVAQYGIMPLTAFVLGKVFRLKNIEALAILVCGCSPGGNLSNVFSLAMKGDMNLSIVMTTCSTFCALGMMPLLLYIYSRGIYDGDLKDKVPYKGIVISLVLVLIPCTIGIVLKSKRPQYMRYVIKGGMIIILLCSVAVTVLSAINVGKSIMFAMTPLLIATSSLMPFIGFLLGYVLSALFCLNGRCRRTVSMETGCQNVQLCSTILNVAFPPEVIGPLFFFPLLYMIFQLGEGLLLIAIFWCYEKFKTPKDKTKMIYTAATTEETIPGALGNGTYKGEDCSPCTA
As to the kind of experiment: LBAT (h/m) assay, human LBAT-overexpressing cells, 3H-taurocholic acid uptake. The class given is cell-based. As to conditions: read-out: hLBAT IC50. The procedure:
LBAT (h/m) Assay Protocol
20,000 cells (Human or Mouse LBAT-overexpressing cells) were seeded in 96-wells plate (Corning CLS3809) in 100 μL MEM-alpha medium (Gibco 12571-063) supplemented with 10% FBS (Gibco 10438026) containing Geneticin (Gibco 10131-027) (1 mg/mL) and incubated at 37° C. in 5% CO2 for 24 hours. After incubation, media was decanted from the wells and cells were washed two times with 300 μL of basal MEM-alpha medium (FBS-free). After decanting basal MEM-alpha medium each time, plates were tapped against paper towel to ensure maximum removal of residual media. For human LBAT, incubation mix was prepared by adding test inhibitor dilutions (3-fold serial dilution in DMSO (Sigma D2650), 10 points) in MEM-alpha (without FBS) containing 0.3 μM 3H-taurocholic acid (ARC ART-1368) and 7.5 μM cold taurocholic acid (Sigma T4009) (maintaining 0.2% final DMSO concentration). For mouse LBAT, incubation mix was prepared by adding test inhibitor dilutions (3-fold serial dilution in DMSO, 10 points) in MEM-alpha (without FBS) containing 0.3 μM 3H-taurocholic acid and 25 μM cold taurocholic acid maintaining 0.2% final DMSO concentration). 50 μL of incubation mix containing test inhibitors was then added to the wells (in duplicate) and the plates were incubated for 20 minutes in a CO2 incubator at 37° C. After incubation, the reaction was stopped by keeping the plates on ice water mix for 2-3 minutes and then the incubation mix was aspirated completely from the wells. The wells were washed two times with 250 μL of chilled unlabeled 1 mM taurocholic acid dissolved in HEPES (Gibco 15630080)-buffered (10 mM) HBSS (Gibco 14175079) (pH 7.4). The plates were tapped against a paper towel after every wash to ensure maximum removal of blocking buffer.
100 μL of MicroScint-20 (PerkinElmer 6013621) was added to the wells and kept overnight at room temperature before reading the plates in TopCount NXT™ Microplate Scintillation and Luminescence Counter from PerkinElmer under 3H Test protocol (set at 120 seconds reading time per well, with normal plate orientation).
Preparation of Test Compound Dilutions
All test compounds were provided in powder form at room temperature. 10 mM DMSO stocks of the test compounds were prepared, aliquoted and stored at −20° C. From the 10 mM DMSO stock of the compounds, a 3-fold serial dilution in DMSO was prepared to get a total of 10 dilutions of the test compounds. 0.5 μL of this dilution in DMSO was added to 250 μL of FBS-free basal media containing 3H-taurocholic acid and cold taurocholic acid to prepare the incubation mixture.

Usually IC50 stands for the concentration that inhibits the measured activity by half. `CCCCC1(C)CN(c2ccc(F)cc2)c2cc(SC)c(OCC(O)C(=O)O)cc2S(=O)(=O)C1` (single isomer, unassigned) [1, diastereomer 1]: the IC50 was 1.64 µM.
